Experimental data: ChEMBL document CHEMBL1201862, “PubChem BioAssay data set” (2004)
Counter-ions that a name gives are not always drawn. The source made the active and inactive calls.

Experiments:
Streptococcus = test: GAS UMAA2166 growth inhibition – luminescence, BacTiterGlo, counter-screen for streptokinase expression inhibitor project, dose response (AID 1915); assay type: functional, organism-based; conditions: read-out: EC50;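 note: potency for reduction of bacterial viability or growth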
[1] = tested on: Streptococcus sp. 'group A'; test: Streptococcus pyogenes SK(-)GAS viability under kanamycin – luminescence, BacTiterGlo, confirmation, counter-screen for streptokinase expression inhibitor project, dose response (AID 1900); assay type: functional, organism-based
[2] = Potency on glucagon-like peptide 1 release, dose-response in NCI-H716 cell line, half maximal inhibitory concentration (AID 1117344); assay type: functional, cell-based
[3] = glucagon-like peptide-1 release potency in STC-1, concentration-response, half-maximal inhibitory concentration in the STC-1 line (AID 1117345); assay type: functional, cell-based
[4] = target: T1, RNA-binding protein pos-1 (Caenorhabditis elegans, UniProt G5EF15); test: disruptors of C. elegans POS-1 RNA interaction – biochemical, fluorescence polarization, dose response (AID 1964);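 note: purified POS-1 fused to maltose binding protein made in E. coli; potency of compounds blocking POS-1 binding to fluorescent RNA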
T1 sequence (G5EF15 whole entry): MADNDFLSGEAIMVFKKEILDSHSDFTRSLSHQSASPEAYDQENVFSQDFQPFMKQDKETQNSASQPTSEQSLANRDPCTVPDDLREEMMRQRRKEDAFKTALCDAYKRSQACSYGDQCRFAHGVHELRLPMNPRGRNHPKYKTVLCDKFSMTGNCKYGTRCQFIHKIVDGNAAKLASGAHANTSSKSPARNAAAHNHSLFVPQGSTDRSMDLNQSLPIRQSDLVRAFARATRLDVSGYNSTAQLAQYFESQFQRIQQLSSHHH

[5] = target: Bifunctional protein GlmU (Mycobacterium tuberculosis, UniProt P9WMN3); test: Inhibitors of Mycobacterial Glucosamine-1-phosphate acetyl transferase (GlmU). Secondary screen.; design: species or system Mycobacterium tuberculosis H37Rv
Chain of Bifunctional protein GlmU (P9WMN3 whole entry, the tested form may be a part): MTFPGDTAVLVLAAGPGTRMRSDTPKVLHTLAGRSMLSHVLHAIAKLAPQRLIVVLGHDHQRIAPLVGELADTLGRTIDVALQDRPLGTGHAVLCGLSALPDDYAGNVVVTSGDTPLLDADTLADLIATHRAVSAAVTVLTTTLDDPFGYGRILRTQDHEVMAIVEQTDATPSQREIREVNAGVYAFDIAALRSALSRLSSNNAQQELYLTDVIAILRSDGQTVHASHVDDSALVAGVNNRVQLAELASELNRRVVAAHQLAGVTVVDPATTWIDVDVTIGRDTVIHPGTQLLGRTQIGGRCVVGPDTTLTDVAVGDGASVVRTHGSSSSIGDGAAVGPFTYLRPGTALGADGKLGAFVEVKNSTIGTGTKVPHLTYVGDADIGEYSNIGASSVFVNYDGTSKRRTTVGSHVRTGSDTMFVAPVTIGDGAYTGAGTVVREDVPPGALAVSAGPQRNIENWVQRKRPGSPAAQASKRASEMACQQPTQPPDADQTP

[6] = target: T2, Carboxy-terminal domain RNA polymerase II polypeptide A small phosphatase 1 (Homo sapiens, UniProt Q9GZU7); test: CTDSP1 inhibitors, concentration-response, biochemical, absorbance readout, ultra-high-throughput screen actives (AID 540297); assay type: functional
T2 sequence (Q9GZU7 whole entry): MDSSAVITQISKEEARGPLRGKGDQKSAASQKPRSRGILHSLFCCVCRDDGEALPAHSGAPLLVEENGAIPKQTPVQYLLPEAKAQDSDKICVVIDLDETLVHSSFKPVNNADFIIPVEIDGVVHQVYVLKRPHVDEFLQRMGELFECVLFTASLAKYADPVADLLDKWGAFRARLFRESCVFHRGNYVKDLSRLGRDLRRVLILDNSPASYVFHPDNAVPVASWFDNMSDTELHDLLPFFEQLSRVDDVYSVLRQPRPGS

[7] = target: DNA (cytosine-5)-methyltransferase 1 (Homo sapiens, UniProt P26358); test: inhibition of DNA methylation by DNMT1 – biochemical, fluorescent molecular beacon, confirmation (AID 602386); assay type: functional
[8] = target: T3, Zinc finger protein mex-5 (Caenorhabditis elegans, UniProt Q9XUB2); test: potency of MEX-5 RNA-binding blockers – biochemical, C. elegans, fluorescence polarization, dose response (AID 1960)
T3 sequence (Q9XUB2 whole entry): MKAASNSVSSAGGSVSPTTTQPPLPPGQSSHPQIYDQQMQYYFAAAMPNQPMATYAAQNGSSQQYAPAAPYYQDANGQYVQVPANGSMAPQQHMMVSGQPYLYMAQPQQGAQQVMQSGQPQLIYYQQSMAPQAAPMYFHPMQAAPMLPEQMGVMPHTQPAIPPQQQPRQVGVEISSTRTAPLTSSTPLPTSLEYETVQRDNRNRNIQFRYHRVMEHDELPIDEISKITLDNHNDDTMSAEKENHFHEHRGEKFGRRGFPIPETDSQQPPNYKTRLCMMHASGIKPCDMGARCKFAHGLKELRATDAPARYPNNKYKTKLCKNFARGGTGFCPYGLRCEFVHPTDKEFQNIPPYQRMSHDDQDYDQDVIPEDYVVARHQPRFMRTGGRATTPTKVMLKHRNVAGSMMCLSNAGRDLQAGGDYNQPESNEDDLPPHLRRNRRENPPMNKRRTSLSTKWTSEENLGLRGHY

Large T antigen = Large T antigen (Simian virus 40, UniProt P03070); assay type: functional, Betapolyomavirus macacae;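 note: Confirmatory-stage PubChem screen for compounds that inhibit SV40 T antigen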
Chain of Large T antigen (P03070 whole entry): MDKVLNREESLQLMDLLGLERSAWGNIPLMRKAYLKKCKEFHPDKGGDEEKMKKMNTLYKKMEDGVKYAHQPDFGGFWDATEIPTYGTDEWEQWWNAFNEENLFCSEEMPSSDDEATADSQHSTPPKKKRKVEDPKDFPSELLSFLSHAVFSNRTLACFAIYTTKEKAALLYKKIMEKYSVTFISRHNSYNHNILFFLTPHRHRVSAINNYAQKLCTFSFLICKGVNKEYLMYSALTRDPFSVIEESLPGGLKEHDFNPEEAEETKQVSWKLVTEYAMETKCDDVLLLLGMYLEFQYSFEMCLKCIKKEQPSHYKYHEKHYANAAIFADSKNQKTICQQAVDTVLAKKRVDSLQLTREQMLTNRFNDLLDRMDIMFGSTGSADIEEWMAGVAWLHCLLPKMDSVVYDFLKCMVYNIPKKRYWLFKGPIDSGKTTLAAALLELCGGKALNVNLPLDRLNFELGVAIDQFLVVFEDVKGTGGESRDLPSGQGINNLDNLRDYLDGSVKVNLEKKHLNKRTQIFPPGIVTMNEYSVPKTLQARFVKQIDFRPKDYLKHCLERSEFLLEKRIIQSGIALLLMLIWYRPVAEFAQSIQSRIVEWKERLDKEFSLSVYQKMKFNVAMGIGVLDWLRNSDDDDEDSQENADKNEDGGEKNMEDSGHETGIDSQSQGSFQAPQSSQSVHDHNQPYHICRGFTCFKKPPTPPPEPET

[9] = target: Long-chain-fatty-acid--AMP ligase FadD28 (Mycobacterium tuberculosis, UniProt P9WQ59); test: Fluorescence polarization aasay to screen for inhibitors that compete for the binding of FadD28 to a bisubstrate Measured in Biochemical System Using Plate Reader - 2147-01_Inhibitor_Dose_CherryPick_Activity.; assay type: functional, Mycobacterium tuberculosis H37Rv
Chain of Long-chain-fatty-acid--AMP ligase FadD28 (P9WQ59 whole entry): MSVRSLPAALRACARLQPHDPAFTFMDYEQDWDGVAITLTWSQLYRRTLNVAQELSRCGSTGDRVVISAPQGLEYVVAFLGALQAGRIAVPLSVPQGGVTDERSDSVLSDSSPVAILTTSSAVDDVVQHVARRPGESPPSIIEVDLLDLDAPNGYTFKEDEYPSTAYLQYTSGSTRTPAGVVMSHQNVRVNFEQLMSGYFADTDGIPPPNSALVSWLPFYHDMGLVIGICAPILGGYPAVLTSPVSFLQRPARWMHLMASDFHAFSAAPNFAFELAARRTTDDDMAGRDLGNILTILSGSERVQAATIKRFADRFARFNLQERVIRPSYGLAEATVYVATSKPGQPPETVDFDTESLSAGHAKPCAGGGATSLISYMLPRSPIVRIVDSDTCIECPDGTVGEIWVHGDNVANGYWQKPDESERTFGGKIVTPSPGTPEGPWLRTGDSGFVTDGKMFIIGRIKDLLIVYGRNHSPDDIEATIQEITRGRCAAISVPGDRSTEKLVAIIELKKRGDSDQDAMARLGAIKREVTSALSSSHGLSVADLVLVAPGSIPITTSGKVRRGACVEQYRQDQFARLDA

[10] = toxicity to human HepG2 hepatoma cells – cell-based, plate reader, dry powder samples, cytotoxicity control, dose response (AID 1159569); assay type: functional;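 note: inhibitor potency with signal falling toward the positive control level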
[11] = Dd2 parasite growth inhibition in erythrocytes – SYBR Green, dry powder samples, set 9, dose response (AID 1159568); assay type: functional, cell-based
[12] = Dd2 malaria parasite growth inhibition potency – SYBR Green, dry powder samples, dose response (AID 1159566); assay type: functional, cell-based;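 note: potency for growth inhibition with lower SYBR green DNA signal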
[13] = P. falciparum Dd2 growth inhibitors, dose response, SYBR Green, cherry-picked samples (AID 1159567); assay type: functional, cell-based
[14] = Plasmodium falciparum Dd2 Sybr green parasite growth Measured in Cell-Based and Microorganism Combination System Using Plate Reader - 2153-01_Inhibitor_Dose_DryPowder_Activity_Set3.; assay type: functional
[15] = growth inhibition of yeast DHODH-expressing 3D7 parasites – SYBR Green, dry powder samples, dose response (AID 1159570); assay type: functional, cell-based;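 note: parasite growth measured after 72 hours of compound exposure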
[16] = growth inhibition of PfATP4-mutant resistant parasites – NITD609-resistant line, SYBR Green, dry powder, dose response (AID 1159571); assay type: functional, cell-based;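 note: parasites synchronized at ring stage by sorbitol before testing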
[17] = target: T4, Trace amine-associated receptor 1 (Homo sapiens, UniProt Q96RJ0); test: Fluorescence-based cell-based high throughput dose response assay to identify agonists of the human trace amine associated receptor 1 (TAAR1).; assay type: functional
T4 sequence (Q96RJ0 whole entry): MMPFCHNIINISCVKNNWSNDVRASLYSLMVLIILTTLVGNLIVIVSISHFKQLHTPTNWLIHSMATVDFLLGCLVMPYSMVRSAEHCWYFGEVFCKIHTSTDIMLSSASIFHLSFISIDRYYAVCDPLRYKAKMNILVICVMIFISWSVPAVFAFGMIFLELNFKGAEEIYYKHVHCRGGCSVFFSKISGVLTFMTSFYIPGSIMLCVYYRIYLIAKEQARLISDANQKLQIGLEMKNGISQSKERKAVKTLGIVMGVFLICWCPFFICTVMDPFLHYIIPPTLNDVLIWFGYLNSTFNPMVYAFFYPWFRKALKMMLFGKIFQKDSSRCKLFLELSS

[18] = IC50 of insulin release inhibition, rat insulinoma INS-1E line, 5 mM glucose, cell-based (AID 1117331); assay type: functional
[19] = target: T4, Trace amine-associated receptor 1; test: Counterscreen for agonists of the human trace amine associated receptor 1 (hTAAR1): Fluorescence-based cell-based high throughput dose response assay to identify hTAAR1 agonist that also desensitize TAAR1 receptor response.; assay type: functional
cells [20] = assay type: functional, cell-based
cells [21] = assay type: functional, cell-based; conditions: INS-1E
cells [22] = assay type: functional, cell-based; remark: listed apart in the source
NADPH oxidase 1 = NADPH oxidase 1 (Homo sapiens, UniProt Q9Y5S8); test: Late-stage luminescence-based cell-based dose response assay to identify inhibitors of NADPH oxidase 1 (NOX1): Synthesized analogs.; assay type: functional
Chain of NADPH oxidase 1 (Q9Y5S8 whole entry): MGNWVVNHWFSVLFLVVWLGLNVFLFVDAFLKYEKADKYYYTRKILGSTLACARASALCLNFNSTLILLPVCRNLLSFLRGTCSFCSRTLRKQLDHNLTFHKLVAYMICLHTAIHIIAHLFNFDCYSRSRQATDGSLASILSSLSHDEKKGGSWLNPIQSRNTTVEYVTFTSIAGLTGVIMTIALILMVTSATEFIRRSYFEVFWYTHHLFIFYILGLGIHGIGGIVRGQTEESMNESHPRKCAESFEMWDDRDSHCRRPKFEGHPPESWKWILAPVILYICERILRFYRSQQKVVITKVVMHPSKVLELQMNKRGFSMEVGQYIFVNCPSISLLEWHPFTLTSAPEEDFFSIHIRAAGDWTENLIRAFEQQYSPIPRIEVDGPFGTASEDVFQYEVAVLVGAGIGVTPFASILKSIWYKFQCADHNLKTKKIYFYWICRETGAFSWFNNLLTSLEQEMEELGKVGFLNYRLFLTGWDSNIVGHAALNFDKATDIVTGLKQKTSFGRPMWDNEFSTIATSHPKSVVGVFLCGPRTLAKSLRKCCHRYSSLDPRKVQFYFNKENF

[23] = lung carcinoma cell viability loss – CellTiter-Glo luminescence, dry powder, set 17, dose response (AID 1117284); assay type: functional, cell-based; conditions: A549
[24] = inhibitors of orthopox intermediate gene expression, dose response, cell-based, single fluorophore reporter, dry powder (AID 1117271); assay type: functional
[25] = Orthopox viral replication plaque formation Measured in Cell-Based and Microorganism Combination System Using Imaging - 2142-05_Inhibitor_Dose_DryPowder_Activity.; assay type: functional
[26] = Single fluorophore orthopox expression reporter, late gene expression Measured in Cell-Based and Microorganism Combination System Using Plate Reader - 2142-08_Inhibitor_Dose_DryPowder_Activity.; assay type: functional
[27] = viability inhibitors of stage V gametocytes – luminescence, dose response (AID 1117278); assay type: functional, cell-based;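 note: gametocytes exposed to compound for 24 hours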
[28] = viability loss in human Jurkat cells – cell-based, luminescence, cytotoxicity control for P. falciparum gametocyte viability project, dose response (AID 1117277); assay type: functional;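 note: potency reflects loss of cellular ATP meaning fewer viable cells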
[29] = rise of 2N DNA cells, HeLa – IC50, dose response (AID 1117349); assay type: functional, cell-based
[30] = rise of 4N DNA cells, HeLa – IC50, dose response (AID 1117351); assay type: functional, cell-based
[31] = viability loss in HepG2 liver cells – cell-based, luminescence, dry powder, set 9, cytotoxicity control, dose response (AID 743358); assay type: functional
[32] = viability loss in HEK293 cells – cell-based, luminescence, dry powder, set 12, cytotoxicity control, dose response (AID 743354); assay type: functional
Bcl-2-like protein 10 = Bcl-2-like protein 10 (Homo sapiens, UniProt Q9HD36); test: Bcl-B/TR3 peptide binding disruption – biochemical, fluorescence polarization, FITC-TR3 peptide, selectivity assay for Bfl-1 inhibitor project, primary screen (AID 748);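 note: fluorescence polarization from a fluorescein-labelled TR3 peptide binding purified Bcl-B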
Chain of Bcl-2-like protein 10 (Q9HD36 whole entry): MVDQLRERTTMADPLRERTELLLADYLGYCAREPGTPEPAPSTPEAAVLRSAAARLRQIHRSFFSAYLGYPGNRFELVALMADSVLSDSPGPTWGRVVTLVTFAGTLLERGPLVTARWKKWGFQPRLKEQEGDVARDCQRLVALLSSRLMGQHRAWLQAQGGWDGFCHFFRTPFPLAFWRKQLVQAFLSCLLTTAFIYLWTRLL

[33] = IC50 of Artemis nuclease activity blockers – biochemical, fluorescence intensity, dose response (AID 720701); assay type: functional;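 note: Artemis endonuclease enzyme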
[34] = alpha-synuclein stem-loop luciferase translation blockers – H4 neuroglioma cells, luminescence, confirmation (AID 1988); assay type: functional, cell-based
[35] = viability of PTEN-deleted HCT116 cells – cell-based, HCT116 PTEN knockout, dose response (AID 1047); assay type: functional;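 note: HCT116 colon tumor cells with PTEN knocked out; cells exposed to compound for 60 hours before readout; potency for loss of cell viability measured by luminescence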
[36] = viability of HCT116 lacking mutant beta-catenin – cell-based, human colon tumor, dose response (AID 1045); assay type: functional;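 note: HCT116 colon tumor cells with beta catenin knocked out; cells exposed to compound for 60 hours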
[37] = target: Voltage-dependent T-type calcium channel subunit alpha-1H (Homo sapiens, UniProt O95180); assay type: functional;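 note: channel activity triggered by adding a high calcium stimulation buffer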
Chain of Voltage-dependent T-type calcium channel subunit alpha-1H (O95180 whole entry): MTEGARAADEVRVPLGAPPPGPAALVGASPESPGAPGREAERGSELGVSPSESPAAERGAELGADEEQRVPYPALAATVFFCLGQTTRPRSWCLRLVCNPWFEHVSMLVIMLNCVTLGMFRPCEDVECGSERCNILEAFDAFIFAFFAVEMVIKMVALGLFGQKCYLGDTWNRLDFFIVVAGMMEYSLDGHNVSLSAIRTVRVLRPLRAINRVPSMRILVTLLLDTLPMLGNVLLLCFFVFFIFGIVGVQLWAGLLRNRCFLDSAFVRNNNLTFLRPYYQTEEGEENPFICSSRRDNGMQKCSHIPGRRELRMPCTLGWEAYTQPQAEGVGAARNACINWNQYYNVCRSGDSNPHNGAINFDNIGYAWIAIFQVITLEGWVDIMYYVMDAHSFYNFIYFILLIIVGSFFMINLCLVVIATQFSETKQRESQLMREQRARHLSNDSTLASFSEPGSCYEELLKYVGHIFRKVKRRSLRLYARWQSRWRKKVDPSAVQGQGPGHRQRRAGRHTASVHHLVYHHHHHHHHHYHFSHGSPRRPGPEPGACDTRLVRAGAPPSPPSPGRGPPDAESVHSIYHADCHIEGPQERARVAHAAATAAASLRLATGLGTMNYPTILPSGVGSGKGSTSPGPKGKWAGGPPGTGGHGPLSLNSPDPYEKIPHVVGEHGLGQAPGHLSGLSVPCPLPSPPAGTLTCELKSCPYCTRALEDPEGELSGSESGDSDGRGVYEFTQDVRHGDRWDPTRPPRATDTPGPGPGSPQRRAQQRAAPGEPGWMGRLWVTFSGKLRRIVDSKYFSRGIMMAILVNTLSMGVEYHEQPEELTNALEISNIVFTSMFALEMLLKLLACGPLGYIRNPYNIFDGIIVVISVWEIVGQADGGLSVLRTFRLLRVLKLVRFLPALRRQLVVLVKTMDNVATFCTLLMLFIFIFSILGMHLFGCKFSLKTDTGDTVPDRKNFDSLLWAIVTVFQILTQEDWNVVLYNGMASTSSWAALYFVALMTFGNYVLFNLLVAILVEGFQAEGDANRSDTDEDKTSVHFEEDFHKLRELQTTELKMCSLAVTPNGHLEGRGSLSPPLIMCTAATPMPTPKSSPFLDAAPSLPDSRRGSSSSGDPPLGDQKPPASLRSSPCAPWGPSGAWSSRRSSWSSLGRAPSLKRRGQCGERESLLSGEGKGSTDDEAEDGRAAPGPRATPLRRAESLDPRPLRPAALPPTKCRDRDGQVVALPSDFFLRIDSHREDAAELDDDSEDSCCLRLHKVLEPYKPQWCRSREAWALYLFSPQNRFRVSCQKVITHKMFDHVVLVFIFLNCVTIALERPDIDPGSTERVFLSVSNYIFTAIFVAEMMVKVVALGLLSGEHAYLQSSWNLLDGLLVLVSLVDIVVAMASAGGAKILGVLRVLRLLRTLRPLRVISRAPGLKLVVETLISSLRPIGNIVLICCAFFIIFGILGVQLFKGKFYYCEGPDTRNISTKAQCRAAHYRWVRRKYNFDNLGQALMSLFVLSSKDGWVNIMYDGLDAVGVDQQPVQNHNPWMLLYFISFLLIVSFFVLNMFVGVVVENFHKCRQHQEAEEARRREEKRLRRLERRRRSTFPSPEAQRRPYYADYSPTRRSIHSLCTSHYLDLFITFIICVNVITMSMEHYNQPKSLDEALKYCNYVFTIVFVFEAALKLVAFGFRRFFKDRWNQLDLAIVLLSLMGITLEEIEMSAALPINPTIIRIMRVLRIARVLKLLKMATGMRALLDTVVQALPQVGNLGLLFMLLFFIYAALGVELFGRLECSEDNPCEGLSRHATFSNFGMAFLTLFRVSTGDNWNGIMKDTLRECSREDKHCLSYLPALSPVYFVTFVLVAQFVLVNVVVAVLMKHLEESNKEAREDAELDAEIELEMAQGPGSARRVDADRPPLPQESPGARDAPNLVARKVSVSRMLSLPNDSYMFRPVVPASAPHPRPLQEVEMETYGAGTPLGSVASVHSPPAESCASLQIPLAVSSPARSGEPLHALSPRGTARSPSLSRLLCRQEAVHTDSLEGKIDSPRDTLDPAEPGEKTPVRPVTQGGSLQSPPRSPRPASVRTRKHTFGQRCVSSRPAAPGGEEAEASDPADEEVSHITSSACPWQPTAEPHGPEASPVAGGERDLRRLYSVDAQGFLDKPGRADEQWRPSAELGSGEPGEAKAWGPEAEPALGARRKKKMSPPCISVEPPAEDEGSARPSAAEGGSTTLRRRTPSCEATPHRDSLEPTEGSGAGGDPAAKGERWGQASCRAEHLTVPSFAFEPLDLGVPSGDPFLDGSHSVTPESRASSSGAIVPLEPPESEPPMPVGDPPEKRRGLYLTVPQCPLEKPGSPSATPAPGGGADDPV

[38] = luciferase reporter signal suppression in cells – H4 neuroglioma cells, luminescence, dose response (AID 1990); assay type: functional, cell-based
[39] = viability loss in Vero cells – cytotoxicity control for Vif-APOBEC3G degradation inhibitor project, dose response (AID 1117358); assay type: functional; conditions: Vero
[40] = Luminescence Cell-Based Dose Response HTS to Identify Inhibitors of 5'UTR Stem-Loop Driven Prion Protein mRNA Translation in H4 Neuroglioblastoma Cells. [Related pubchem assays: 1827 (Project Summary), 1813 (Primary HTS)]; assay type: functional

Structure (SMILES): Clc1ccc(CO/N=C(\Cn2ccnc2)c2ccc(Cl)cc2Cl)c(Cl)c1 [OXICONAZOLE NITRATE]
- EC50 (Streptococcus): 3.82 µM (active)
- EC50 [1]: 1.92 µM (active)
- IC50 [2]: > 40 µM (inactive)
- IC50 [3]: > 40 µM (inactive)

Structure (SMILES): Cc1ccc(NC(=O)CN2C(=O)N/C(=C\c3cccn3-c3cccc(C(=O)O)c3)C2=O)cc1
- EC50 [4]: > 300 µM (not active)
- IC50 [5]: 103 µM (active)
- IC50 [6]: 2.2 µM (active)
- IC50 [7]: 6.05 µM (active)
- EC50 [8]: 54 µM (active)
- IC50 (Large T antigen): > 100 µM (active)
- AC50 [9]: 28 µM (active)

Structure (SMILES): CCCN1C[C@H](C)[C@@H](OC)CN(C)C(=O)c2cc(NC(=O)Nc3cccc(F)c3)ccc2OC[C@H]1C
- AC50 [10]: 42.2 µM (active)
- AC50 [11]: 1.61 µM (active)
- AC50 [12]: 0.469 µM (active)
- AC50 [13]: 2.11 µM (active)
- AC50 [14]: 2 µM (active)
- AC50 [15]: 15.2 µM (active)
- AC50 [16]: 2.47 µM (active)

Structure (SMILES): N[C@@H]1C[C@H]1c1ccccc1 [TRANYLCYPROMINE HYDROCHLORIDE]
- EC50 [17]: 0.611 µM (active)
- IC50 [18]: > 33.3 µM (inactive)
- IC50 [19]: 2.1 µM (active)
- EC50 (cells [20]): > 29.9 µM (inactive)
- IC50 (cells [21]): > 33.3 µM (inactive)
- IC50 (cells [22]): > 29.9 µM (inactive)

Structure (SMILES): CCN1c2ccccc2S(=O)(=O)c2ccccc21
- IC50 (NADPH oxidase 1): > 50 µM (not active)

Structure (SMILES): Cc1cccc(-c2ccc(CN(C)C[C@@H]3Oc4cc(C#C[C@@H](C)O)ccc4S(=O)(=O)N([C@@H](C)CO)C[C@@H]3C)cc2)c1
- AC50 [23]: 35.5 µM (active)
- AC50 [24]: 1.85 µM (active)
- AC50 [25]: 0.15 µM (active)
- AC50 [26]: 1.48 µM (active)

Structure (SMILES): O=C1N[C@@H](c2ccccc2)COC(=O)[C@@H](Cc2ccc(F)cc2)C/C=C\C[C@H]1CC(=O)N(CCO)Cc1ccccc1
- IC50 [27]: > 109 µM (inactive)
- IC50 [28]: 37.8 µM (inactive)

Structure (SMILES): CCCCCCNC(=O)n1cc(F)c(=O)[nH]c1=O [CARMOFUR]
- IC50 [29]: > 10 µM (inactive)
- IC50 [30]: > 10 µM (inactive)

Structure (SMILES): COC(=O)CCCCCCC(=O)N1CC[C@@H]2[C@@H](CO)N(C)c3ccc(-c4cccc(F)c4)cc3[C@@H]21
- AC50 [31]: > 52 µM (inactive)
- AC50 [32]: 46.1 µM (active)

Structure (SMILES): Cc1cc(-c2csc(N)n2)c(C)n1C
- IC50 (Bcl-2-like protein 10): 26 µM (active)
- IC50 [33]: > 20 µM (inactive)

Structure (SMILES): CCN(Cc1ccccc1)S(=O)(=O)c1ccc(C(=O)Nc2nnc(C3CC3)o2)cc1
- EC50 [34]: 25.3 µM (active)
- EC50 [35]: 9.37 µM (active)
- EC50 [36]: 8.9 µM (active)
- EC50 [37]: 13.7 µM (active)
- EC50 [38]: > 120 µM (not active)
- CC50 [39]: 20.2 µM (active)
- EC50 [40]: 12.6 µM (active)
